The results in this text go back to patent US20150306107A1, “SAA Derivative Compound Restores eNOS And Inhibits Oxidative Stress-Induced A Diseases In Hypoxia” (JANSFAT BIOTECHNOLOGY CO., LTD., priority 2014, published 2015).

Holding throughout (type): cell-based
In assay [1] the test system is eNOS. Briefly: Western blotting of eNOS expression in isolated rat pulmonary artery ring, short-term (acute) hypoxia or normoxia. The following applies: for eNOS expression, Pulmonary Artery Ring: acute hypoxia, Normoxia 100, Hypoxia 65.3 ± 7.8. How it is done: (§1) In our in vitro short-term experiment, isolated rat pulmonary artery was grown under normoxia (20% O2) or hypoxia (1% O2) at 37° C. for 24 hrs as was previously done (Wu BN, et al. Int J Immunopathol Pharmacol 24:925, 2011). The heart weight and body weight ratio (HW/BW) of the rats treated with one of SPAAX-1, SPAAX-1 RX complex, Sildenafil or Sildenafil RX complex each measured on the 21st hypoxic day. All animal care and the experimental protocols of this study were approved by the Animal Care and Use Committee of the Kaohsiung Medical University. Male Wistar rats (200-250 g), provided by the National Laboratory Animal Breeding and Research Center (Taipei, Taiwan), were housed under constant temperature and controlled illumination. Food and water were available ad libitum.
(§2) Whole right lung tissues of hypoxia-treated and untreated rats were isolated and cut into small strips and placed into an extraction buffer (Tris 10 mM, pH 7.0, NaCl 140 mM, PMSF 2 mM, DTT 5 mM, NP-40 0.5%, pepstatin A 0.05 mM and leupeptin 0.2 mM) for protein extraction, and then centrifuged at 12,500 g for 30 min. To measure the expression levels of the proteins, the total proteins were extracted and Western blotting analysis was performed as described previously (Bivalacqua T J, et al., 2013, TJ PLoSONE 8: e68028. doi:10.1371/journal. pone.0068028). Briefly, the protein extract was boiled to a ratio of 4:1 with a sample buffer (Tris 100 mM, pH 6.8, glycerol 20%, SDS 4% and bromophenol blue 0.2%). Electrophoresis was performed using 10% SDS-polyacrylamide gel (2 hr, 100 V, 40 mA, […] protein per lane). Separated proteins were transferred to PVDF membranes treated with 5% fat-free milk powder to block the nonspecific IgGs (90 min, 100 V) and incubated for one hour with a specific protein antibody. The blot was then incubated with anti-mouse or anti-goat IgG linked to alkaline phosphatase (1:1000) for 1 hr. Immunoreactive bands were visualized using horseradish peroxidase-conjugated secondary antibodies and subsequent electrochemiluminescence (ECL) detection (GE Healthcare Bio-Sciences Corp., Piscataway, N.J., U.S.A.). Mouse or rabbit monoclonal antibody of eNOS (Upstate, N.Y., U.S.A.), sGCα (Sigma-Adrich, CA, U.S.A., sGCβ (Santa Cruz, Calif., U.S.A.), PDE-5A (BD Tansduction, San Jose, Calif., U.S.A.), PKG (Calbiochem, San Diego, Calif., U.S.A.) ROCKII (Upstate, N.Y., U.S.A.), RhoA (Santa Cruze, Calif., U.S.A.) and the loading control protein β-actin (Sigma-Adrich, MO, U.S.A.) were used in our Western blot analysis.
(§3) The Western blotting analysis measurements were performed as per lung tissue.

In assay [2] the test system is eNOS. Briefly: Western blotting of eNOS expression in rat carvenosus strip, acute hypoxia. Also on record: unit not given here. On the technique in general: Immunoblotting shows a protein as a band on a membrane.
Assay [3] relates to ROCK II. In words: Western blotting of ROCK II expression in isolated rat pulmonary artery ring, short-term (acute) hypoxia or normoxia. The following applies: for ROCK II expression, Pulmonary Artery Ring: acute hypoxia, Normoxia 100, Hypoxia 560 ± 21. As to the method:
as §1, §2, §3

The test system of assay [4] is VEGF. Briefly: Western blotting of VEGF expression in rat carvenosus strip, acute hypoxia. Further details: unit not given here.
Assay [5] deals with VEGF. In words: Western blotting of VEGF expression in isolated rat pulmonary artery ring, short-term (acute) hypoxia. How it is done:
as §1, §2, §3

[6] abbreviates: Normoxia 100, Hypoxia 62.4 ± 5.5.
Where [7] appears, read: normoxia for 24 hrs, 10 μm, versus non-treated controls.

Take `CCCc1nn(C)c2c(=O)[nH]c(-c3cc(S(=O)(=O)N4CCN(C)CC4)ccc3OCC)nc12.O=C(O)c1ccccc1O` [Reagent 1016, Sildenafil-Salicylate complex]: the “eNOS expression, Pulmonary Artery Ring” value in assay [1] is 165 ± 16. Also, in assay [2] (setting [6]), the “eNOS expression, Carvenosus” value is recorded as 110 ± 4.7. Moreover, in assay [3], the “ROCK II expression, Pulmonary Artery Ring” value (“ROCK II expression” below) is listed as 178 ± 19. The “VEGF expression, Carvenosus” value in assay [4] (Normoxia 100, Hypoxia 170 ± 15) came to 90 ± 7.5. Moreover, the “VEGF expression, Pulmonary Artery Ring” value in assay [5] (Normoxia 100, Hypoxia 175 ± 14) turned out to be 90 ± 5.2.

Take `CCCc1nn(C)c2c(=O)[nH]c(-c3cc(S(=O)(=O)N4CCN(C)CC4)ccc3OCC)nc12.O=C1OC(C(O)CO)C(O)=C1O` [Reagent 1002, Sildenafil DL-ascorbate complex]: the “eNOS expression, Pulmonary Artery Ring” value in assay [1] (listed as 1002) was determined as 130 ± 6.4. For the same compound, the “eNOS expression, Carvenosus” value in assay [2] (Normoxia 100, Hypoxia 62.4 ± 5.5, listed as 1002) was 125 ± 5.4. In assay [3] (listed as 1002), the “ROCK II expression” value came to 211 ± 12.5. The “VEGF expression, Carvenosus” value in assay [4] (Normoxia 100, Hypoxia 170 ± 15, listed as 1002) is 90 ± 7.9. Further, in assay [5] (Normoxia 100, Hypoxia 175 ± 14, listed as 1002), the “VEGF expression, Pulmonary Artery Ring” value stood at 90 ± 5.8.

Regarding `CCCc1nn(C)c2c(=O)[nH]c(-c3cc(S(=O)(=O)N4CCN(C)CC4)ccc3OCC)nc12.O=C(O)C=CC(=O)O` [Reagent 1010, Sildenafil fumarate complex], the “ROCK II expression” value in assay [3] (listed as 1010) stood at 125 ± 13. Further, in assay [4] (Normoxia 100, Hypoxia 170 ± 15, listed as 1010), the “VEGF expression, Carvenosus” value worked out at 117 ± 17.

With `CC(O)C(=O)O.CCCc1nn(C)c2c(=O)[nH]c(-c3cc(S(=O)(=O)N4CCN(C)CC4)ccc3OCC)nc12` [Reagent 1011, Sildenafil lactate complex], the “eNOS expression, Pulmonary Artery Ring” value in assay [1] is 75 ± 13. Also, the “eNOS expression, Carvenosus” value in assay [2] (setting [6]) worked out at 46 ± 4.7. In addition, in assay [3], the “ROCK II expression” value came to 310 ± 21. The “VEGF expression, Carvenosus” value in assay [4] (Normoxia 100, Hypoxia 170 ± 15) came to 118 ± 16. The “VEGF expression, Pulmonary Artery Ring” value in assay [5] (Normoxia 100, Hypoxia 175 ± 14) was 133 ± 17.

With `CCCCCCCCC=CCCCCCCCC(=O)O.CCCc1nn(C)c2c(=O)[nH]c(-c3cc(S(=O)(=O)N4CCN(C)CC4)ccc3OCC)nc12` [Reagent 1013, Sildenafil oleate complex], the “eNOS expression, Pulmonary Artery Ring” value in assay [1] is 104 ± 18.

Turning to `CCCc1nn(C)c2c(=O)[nH]c(-c3cc(S(=O)(=O)N4CCN(C)CC4)ccc3OCC)nc12.O=C(O)C(=O)O` [Reagent 1015, Sildenafil oxalate complex], in assay [1], the “eNOS expression, Pulmonary Artery Ring” value is listed as 68 ± 15. In addition, the “eNOS expression, Carvenosus” value in assay [2] (setting [6]) was 65 ± 4.7. Also, in assay [3], the “ROCK II expression” value stood at 395 ± 27.

`C[C@@H](N)[C@H]1CC[C@H](C(=O)Nc2ccncc2)CC1` [Reagent Y27632, Y27632, reference compound]: the “eNOS in isolated hypoxic pulmonary artery” value in assay [1] (hypoxia for 24 hrs, versus control level in normoxia, hypoxia 60±8.3%) is listed as 50±4.7%. Also, the “expression of eNOS in isolated pulmonary artery ring” value in assay [1] (setting [7]) came to 114.1±12.3%. Besides, the “expression of ROCK II in isolated hypoxic pulmonary artery” value in assay [3] (hypoxia for 24 hrs, versus control level in normoxia, hypoxia 180±10.2%) is recorded as 150±13.1%. In addition, the “Expression of ROCK II in isolated pulmonary artery ring” value in assay [3] (setting [7]) was determined as 67.5±14.8%.

For the compound `CCCc1nn(C)c2c(=O)[nH]c(-c3cc(S(=O)(=O)N4CCN(C)CC4)ccc3OCC)nc12.O=C(O)C=CC(=O)O` [Reagent 1008, Sildenafil maleate complex], in assay [2] (setting [6]), the “eNOS expression, Carvenosus” value amounted to 45 ± 4.2. Also, the “ROCK II expression” value in assay [3] (listed as 1008) was determined as 150 ± 14. In addition, in assay [4] (Normoxia 100, Hypoxia 170 ± 15, listed as 1008), the “VEGF expression, Carvenosus” value is 116 ± 12.

Consider `CCCc1nn(C)c2c(=O)[nH]c(-c3cc(S(=O)(=O)N4CCN(C)CC4)ccc3OCC)nc12.O=C(O)CC(O)C(=O)O` [Reagent 1009, Sildenafil malate complex], for which the “ROCK II expression” value in assay [3] is recorded as 120 ± 12. Moreover, the “VEGF expression, Carvenosus” value in assay [4] (Normoxia 100, Hypoxia 170 ± 15) was 118 ± 18.

`CC(=O)O.CCCc1nn(C)c2c(=O)[nH]c(-c3cc(S(=O)(=O)N4CCN(C)CC4)ccc3OCC)nc12` [Reagent 1012, Sildenafil acetate complex]: the “eNOS expression, Pulmonary Artery Ring” value in assay [1] is 70 ± 13. Further, the “ROCK II expression” value in assay [3] is given as 270 ± 27.
